According to the NIST ThermoML archive (doi:10.1016/j.fluid.2014.09.014):

Test: refractive index (other wavelength) (dimensionless); xn = mol fraction of the nth substance listed
Conditions: 101 kPa, Liquid, Standard Abbe refractometry

CC(C)OC(C)C [diisopropyl ether] + CC(C)O
refractive index
Conditions | Wavelength=404.7 nm | Wavelength=435.8 nm | Wavelength=486.1 nm | Wavelength=546.1 nm | Wavelength=587.6 nm | Wavelength=589.3 nm | Wavelength=632.8 nm | Wavelength=644 nm | Wavelength=706.5 nm
293.5 K, x1 = 0.0277 | 1.388 | 1.38493 | 1.38147 | 1.3786 | 1.37708 | 1.37703 | 1.37572 | 1.37541 | 1.37391
293.5 K, x1 = 0.0507 | 1.3879 | 1.38485 | 1.38137 | 1.3785 | 1.37699 | 1.37693 | 1.37562 | 1.37531 | 1.37381
293.5 K, x1 = 0.051 | 1.38799 | 1.38492 | 1.38146 | 1.37859 | 1.37708 | 1.37702 | 1.3757 | 1.37539 | 1.37389
293.5 K, x1 = 0.0717 | 1.38774 | 1.38468 | 1.38121 | 1.37834 | 1.37683 | 1.37678 | 1.37545 | 1.37515 | 1.37366
293.5 K, x1 = 0.1528 | 1.38719 | 1.38413 | 1.38066 | 1.37779 | 1.37629 | 1.37623 | 1.37492 | 1.37461 | 1.37313
293.5 K, x1 = 0.1553 | 1.38719 | 1.38413 | 1.38066 | 1.37779 | 1.37629 | 1.37623 | 1.37492 | 1.37461 | 1.37313
293.5 K, x1 = 0.1938 | 1.38688 | 1.38381 | 1.38034 | 1.37747 | 1.37597 | 1.37591 | 1.37461 | 1.3743 | 1.37281
293.5 K, x1 = 0.2029 | 1.38669 | 1.38364 | 1.38016 | 1.3773 | 1.3758 | 1.37574 | 1.37443 | 1.37411 | 1.37263
293.5 K, x1 = 0.245 | 1.3865 | 1.38325 | 1.37977 | 1.37692 | 1.37541 | 1.37536 | 1.37405 | 1.37374 | 1.37227
293.5 K, x1 = 0.297 | 1.38605 | 1.383 | 1.37951 | 1.37666 | 1.37514 | 1.37509 | 1.37378 | 1.37347 | 1.372
293.5 K, x1 = 0.2973 | 1.38627 | 1.3832 | 1.37973 | 1.37687 | 1.37535 | 1.3753 | 1.374 | 1.3737 | 1.37222
293.5 K, x1 = 0.3068 | 1.38571 | 1.38264 | 1.37919 | 1.37631 | 1.37481 | 1.37475 | 1.37345 | 1.37314 | 1.37167
293.5 K, x1 = 0.398 | 1.38461 | 1.38154 | 1.37808 | 1.37522 | 1.37371 | 1.37366 | 1.37236 | 1.37206 | 1.37061
293.5 K, x1 = 0.4609 | 1.38404 | 1.38098 | 1.37753 | 1.37466 | 1.37315 | 1.3731 | 1.3718 | 1.3715 | 1.37005
293.5 K, x1 = 0.5434 | 1.38333 | 1.38026 | 1.37682 | 1.37395 | 1.37246 | 1.3724 | 1.37111 | 1.37078 | 1.36934
293.5 K, x1 = 0.6032 | 1.38277 | 1.37972 | 1.37624 | 1.3734 | 1.37188 | 1.37182 | 1.37052 | 1.37023 | 1.36879
293.5 K, x1 = 0.6371 | 1.3824 | 1.37934 | 1.37588 | 1.37304 | 1.37152 | 1.37146 | 1.37017 | 1.36988 | 1.36844
293.5 K, x1 = 0.701 | 1.38179 | 1.37873 | 1.37528 | 1.37243 | 1.37093 | 1.37087 | 1.36958 | 1.36928 | 1.36784
293.5 K, x1 = 0.754 | 1.38141 | 1.37834 | 1.3749 | 1.37205 | 1.37055 | 1.37049 | 1.3692 | 1.36891 | 1.36746
293.5 K, x1 = 0.791 | 1.38107 | 1.37802 | 1.37455 | 1.37172 | 1.37022 | 1.37016 | 1.36887 | 1.36857 | 1.36713
293.5 K, x1 = 0.8296 | 1.38071 | 1.37766 | 1.37423 | 1.37135 | 1.36987 | 1.36982 | 1.36854 | 1.36824 | 1.3668
293.5 K, x1 = 0.8864 | 1.38051 | 1.37747 | 1.374 | 1.37116 | 1.36966 | 1.36961 | 1.36832 | 1.36802 | 1.36658
293.5 K, x1 = 0.8903 | 1.38011 | 1.37706 | 1.37363 | 1.37076 | 1.36928 | 1.36922 | 1.36795 | 1.36765 | 1.3662
293.5 K, x1 = 0.9113 | 1.37989 | 1.37684 | 1.37339 | 1.37055 | 1.36905 | 1.369 | 1.36771 | 1.36741 | 1.36598
293.5 K, x1 = 0.9547 | 1.37948 | 1.37645 | 1.37301 | 1.37015 | 1.36866 | 1.36861 | 1.36732 | 1.36702 | 1.36559
293.5 K, x1 = 0.973 | 1.37918 | 1.37614 | 1.37271 | 1.36984 | 1.36836 | 1.3683 | 1.36703 | 1.36673 | 1.36529
293.5 K, x1 = 0.9771 | 1.37921 | 1.37617 | 1.37274 | 1.36988 | 1.36839 | 1.36834 | 1.36706 | 1.36675 | 1.36532
293.5 K, x1 = 1 | 1.37888 | 1.37585 | 1.37241 | 1.36955 | 1.36806 | 1.36801 | 1.36674 | 1.36644 | 1.36501
298.15 K, x1 = 0.0277 | 1.38582 | 1.38277 | 1.37932 | 1.37648 | 1.37498 | – | – | – | –
298.15 K, x1 = 0.0507 | 1.38573 | 1.38268 | 1.37925 | 1.37639 | 1.37488 | – | – | – | –
298.15 K, x1 = 0.051 | 1.38574 | 1.38276 | 1.37929 | 1.37644 | 1.37491 | – | – | – | –
298.15 K, x1 = 0.0717 | 1.38551 | 1.38247 | 1.37903 | 1.37618 | 1.37468 | – | – | – | –
298.15 K, x1 = 0.1528 | 1.38491 | 1.38186 | 1.37841 | 1.37557 | 1.37406 | – | – | – | –
298.15 K, x1 = 0.1553 | 1.38491 | 1.38186 | 1.37841 | 1.37557 | 1.37406 | – | – | – | –
298.15 K, x1 = 0.1938 | 1.38463 | 1.38158 | 1.37814 | 1.3753 | 1.37379 | – | – | – | –
298.15 K, x1 = 0.2029 | 1.38436 | 1.38132 | 1.37787 | 1.37502 | 1.37351 | – | – | – | –
298.15 K, x1 = 0.245 | 1.38392 | 1.38088 | 1.37746 | 1.37462 | 1.37311 | – | – | – | –
298.15 K, x1 = 0.297 | 1.38349 | 1.38044 | 1.377 | 1.37426 | 1.37265 | – | – | – | –
298.15 K, x1 = 0.2973 | 1.38372 | 1.38067 | 1.37725 | 1.37439 | 1.37289 | – | – | – | –
298.15 K, x1 = 0.3068 | 1.38326 | 1.38023 | 1.37678 | 1.37394 | 1.37243 | – | – | – | –
298.15 K, x1 = 0.398 | 1.38211 | 1.37907 | 1.37562 | 1.37278 | 1.37127 | – | – | – | –
298.15 K, x1 = 0.4609 | 1.3815 | 1.37845 | 1.37502 | 1.37217 | 1.37067 | – | – | – | –
298.15 K, x1 = 0.5434 | 1.38067 | 1.37764 | 1.3742 | 1.37135 | – | – | – | – | –
298.15 K, x1 = 0.6032 | 1.3801 | 1.37707 | 1.37364 | 1.3708 | – | – | – | – | –
298.15 K, x1 = 0.6371 | 1.37972 | 1.37669 | 1.37328 | 1.37042 | – | – | – | – | –
298.15 K, x1 = 0.701 | 1.37906 | 1.37604 | 1.37261 | 1.36978 | – | – | – | – | –
298.15 K, x1 = 0.754 | 1.37868 | 1.37567 | 1.37225 | 1.3694 | – | – | – | – | –
298.15 K, x1 = 0.791 | 1.3783 | 1.37529 | 1.37188 | 1.36903 | – | – | – | – | –
298.15 K, x1 = 0.8296 | 1.37799 | 1.37498 | 1.37154 | 1.36872 | – | – | – | – | –
298.15 K, x1 = 0.8864 | 1.37775 | 1.37471 | 1.37132 | 1.36847 | – | – | – | – | –
298.15 K, x1 = 0.8903 | 1.37734 | 1.37434 | 1.3709 | 1.36807 | – | – | – | – | –
298.15 K, x1 = 0.9113 | 1.37711 | 1.37411 | 1.37068 | 1.36785 | – | – | – | – | –
298.15 K, x1 = 0.9547 | 1.37676 | 1.37367 | 1.37025 | 1.36742 | – | – | – | – | –
298.15 K, x1 = 0.973 | 1.37634 | 1.37334 | 1.36994 | 1.3671 | – | – | – | – | –
298.15 K, x1 = 0.9771 | 1.37629 | 1.3733 | 1.36986 | 1.36704 | – | – | – | – | –
298.15 K, x1 = 1 | 1.37607 | 1.37308 | 1.36965 | 1.36683 | – | – | – | – | –
